Laboratory results published in patent US20110166152A1, “HETEROAROMATIC COMPOUNDS AS INHIBITORS OF STEAROYL-COENZYME A DELTA-9 DESATURASE” (priority 2008, published 2011).

Molecular target: T1, human SCD1 (Homo sapiens, UniProt O00767)
T1 construct: made in house; host or cells: baculovirus/Sf9 insect cells
T1 sequence (O00767 1-359): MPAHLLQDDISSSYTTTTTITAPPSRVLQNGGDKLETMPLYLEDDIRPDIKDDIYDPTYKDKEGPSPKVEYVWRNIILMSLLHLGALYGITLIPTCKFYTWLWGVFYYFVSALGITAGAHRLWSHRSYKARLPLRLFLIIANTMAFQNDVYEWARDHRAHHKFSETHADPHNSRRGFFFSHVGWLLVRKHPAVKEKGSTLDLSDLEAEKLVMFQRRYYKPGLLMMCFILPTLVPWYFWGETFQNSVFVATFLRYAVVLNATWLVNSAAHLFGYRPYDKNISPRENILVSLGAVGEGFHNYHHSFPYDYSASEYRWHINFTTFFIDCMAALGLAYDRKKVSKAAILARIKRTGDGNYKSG
Test: SCD enzyme activity assay, reconstituted human SCD1 ([3H]-stearoyl-CoA conversion)
Assay type: biochemical
Conditions: read-out: IC50 hSCD-1
Procedure: The potency of compounds of formula I against the stearoyl-CoA desaturase was determined by measuring the conversion of radiolabeled stearoyl-CoA to oleoyl-CoA using rat liver microsome or human SCD1 following previously published procedures with some modifications (Joshi, et al., J. Lipid Res., 18: 32-36 (1977); Talamo, et al., Anal. Biochem, 29: 300-304 (1969)). Liver microsome was prepared from male Wistar or Sprague Dawley rats on a high carbohydrate diet for 3 days (LabDiet #5803, Purina). The livers were homogenized (1:10 w/v) in a buffer containing 250 mM sucrose, 1 mM EDTA, 5 mM DTT and 50 mM Tris-HCl (pH 7.5). After a 100,000×g centrifugation for 60 min, the liver microsome pellet was suspended in a buffer containing 100 mM sodium phosphate, 20% glycerol, 2 mM DTT, and stored at −78° C. Human SCD1 desaturase system was reconstituted using human SCD1 from a baculovirus/Sf9 expression system, cytochrome B5 and cytochrome B5 reductase. Typically, test compound in 2 μL DMSO was incubated for 15 min at room temperature with 180 μL of the SCD enzyme in a buffer containing 100 mM Tris-HCl (pH 7.5), ATP (5 mM), Coenzyme-A (0.1 mM), Triton X-100 (0.5 mM) and NADH (2 mM). The reaction was initiated by the addition of 20 μL of [^3H]-stearoyl-CoA (final concentration=2 μM, radioactivity concentration=1 μCi/mL). After 10 min, the reaction mixture (80 μL) was mixed with a calcium chloride/charcoal aqueous suspension (100 μL charcoal (10% w/v) plus 25 μL CaCl2 (2N). After centrifugation to precipitate the radioactive fatty acid species, tritiated water released from 9,10-[^3H]-stearoyl-CoA by the SCD enzyme was quantified on a scintillation counter.

O=C(O)c1ccc2nc(-c3cn(Cc4cc(Br)c(Br)c(Br)c4)nn3)sc2c1
IC50: 14 nM

CCOC(=O)Nc1nc2ncc(-c3cn(Cc4cc(Br)c(Br)c(Br)c4)nn3)nc2s1
IC50: 16 nM

Oc1cnc2nc(-c3cn(Cc4cc(Cl)c(Cl)c(Cl)c4)nn3)sc2n1
IC50: 48 nM

O=C(O)CNc1nc2cnc(-c3cn(Cc4cc(Cl)c(Cl)c(Cl)c4)nn3)nc2s1
IC50: 31 nM

OCc1ccn2cc(-c3cn(Cc4cc(Cl)c(Cl)c(Cl)c4)nn3)nc2c1
IC50: 39 nM
